The text below walks through data of ChEMBL document CHEMBL1201862, “PubChem BioAssay data set” (2004).

Among the test systems are MDA-N; MDA-MB-231; 786-0; NCI-H23; K562; NCI-H522; MCF7; SN12C; PC-3; Hs-578T; HCT-15; HOP-92; SK-MEL-5; U-251; OVCAR-8; HCC 2998; SF-539; HCT-116; COLO 205; UO-31.
What all share (assay): growth of human tumour cells (NCI), 48 h

The structures appear in SMILES notation.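 These data come from cells grown in 96-well plates and exposed to compound for 48 hours at five concentrations. GI50 marks 50% less growth.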 Active and inactive are the calls of the source. No stated cut-off is given here; in the data, active = GI50 up to about 1.1 µM and inactive = higher.

As to `COC(=O)C1SC[C@H]2C(=O)N(c3ccccc3)C(=O)N12` (stereo not given in full), the GI50 in the assay on MDA-N, in the assay with MDA-MB-231, with 786-0, with NCI-H23, with K562 and in the assay on NCI-H522 was > 100 µM (inactive) throughout. Also, the GI50 in the assay with MCF7 was > 100 µM (inactive); in the assay on SN12C, > 100 µM (inactive); in the assay on PC-3, > 100 µM (inactive); in the assay with Hs-578T, > 100 µM (inactive); in the assay with HCT-15 it was above 100 µM; with HOP-92, 85.3 µM (inactive). In addition, the GI50 in the assay on SK-MEL-5, in the assay with U-251, in the assay with OVCAR-8, with HCC 2998, with SF-539 and with HCT-116 was > 100 µM (inactive) each time. Also, the GI50 with COLO 205 and in the assay on UO-31 was > 100 µM (inactive) each time.

Take `C/C(=N\N=C(/S)N1CC2CCC(CC2)C1)c1cccc[n+]1[O-]`: the GI50 is 14.2 µM (inactive) with MDA-N; 19.5 µM (inactive) in the assay with MDA-MB-231; 6.9 µM (inactive) in the assay with 786-0; 16.6 µM (inactive) with NCI-H23; 0.228 µM (active) in the assay on K562; 11.4 µM (inactive) in the assay on NCI-H522. In addition, the GI50 with MCF7 was 5.7 µM (inactive); in the assay on SN12C, 7.67 µM (inactive); in the assay with PC-3 it was 11.7 µM (inactive); in the assay with Hs-578T it was 18.4 µM (inactive); in the assay on HCT-15 it was 1.8 µM; in the assay with HOP-92, 13.2 µM (inactive). In addition, the GI50 was 6.21 µM (inactive) in the assay on SK-MEL-5; 6.28 µM (inactive) with U-251; 6.44 µM (inactive) with OVCAR-8; 10.8 µM (inactive) in the assay on HCC 2998; 5.85 µM (inactive) in the assay with SF-539; 3.61 µM (inactive) in the assay on HCT-116. For the same compound, the GI50 with COLO 205 was 3.66 µM (inactive); with UO-31, 3.12 µM (inactive).

On to `O=C1c2ccccc2C(=O)c2c1ccc1nc3c(nc21)-c1c2ccccc2cc2cccc-3c12`, for which the GI50 is 32.6 µM (inactive) in the assay on MDA-N; 74.1 µM (inactive) in the assay with MDA-MB-231; 21.5 µM (inactive) in the assay on 786-0; 41.6 µM (inactive) in the assay on NCI-H23; > 29.6 µM (inactive) in the assay with K562; 27.2 µM (inactive) with NCI-H522. The GI50 is 17.6 µM (inactive) with MCF7; 35.8 µM (inactive) in the assay on SN12C; 41.9 µM (inactive) in the assay with PC-3; 13.7 µM (inactive) in the assay on Hs-578T; 29.4 µM in the assay with HCT-15; > 73.8 µM (inactive) in the assay on HOP-92. Further, the GI50 in the assay on SK-MEL-5 is 46.7 µM (inactive); in the assay on U-251 it was 31.3 µM (inactive); in the assay with OVCAR-8 it was 27.4 µM (inactive); in the assay on HCC 2998, > 95.3 µM (inactive); in the assay on SF-539, 21.4 µM (inactive); in the assay on HCT-116, 5.56 µM (inactive). The GI50 is 90.8 µM (inactive) in the assay with COLO 205 and 17.6 µM (inactive) in the assay with UO-31.

As for `CC(C)=CCc1c(O)cc2oc(-c3ccc(O)cc3O)cc(=O)c2c1O`, the GI50 was 25.2 µM (inactive) in the assay with MDA-N; 26.4 µM (inactive) in the assay on MDA-MB-231; 26 µM (inactive) in the assay on 786-0; 24.6 µM (inactive) with NCI-H23; 8.87 µM (inactive) with K562; 22.3 µM (inactive) in the assay with NCI-H522. The GI50 in the assay on MCF7 was 24.4 µM (inactive); with SN12C, 28.8 µM (inactive); in the assay on PC-3, 34.7 µM (inactive); in the assay on Hs-578T, 42.8 µM (inactive); with HCT-15, 23 µM; with HOP-92, 32.4 µM (inactive). Further, the GI50 in the assay with SK-MEL-5 was 19.9 µM (inactive); in the assay on U-251, 32.2 µM (inactive); with OVCAR-8 it was 36.7 µM (inactive); with HCC 2998, 17.3 µM (inactive); in the assay with SF-539 it was 27.4 µM (inactive); with HCT-116, 25.1 µM (inactive). The GI50 in the assay on COLO 205 is 28.2 µM (inactive); in the assay on UO-31, 4.32 µM (inactive).

For the compound `Nc1ncnc2c1ncn2[C@@H]1O[C@H](COP(=O)(O)OP(=O)(O)OC[C@H]2O[C@@H](OCCCO)[C@H](O)[C@@H]2O)[C@@H](O)[C@H]1O`, the GI50 is 78.9 µM (inactive) with MDA-N; > 100 µM (inactive) in the assay with MDA-MB-231; > 100 µM (inactive) in the assay on 786-0; > 100 µM (inactive) in the assay with NCI-H23; > 100 µM (inactive) in the assay on K562; > 100 µM (inactive) with NCI-H522. The GI50 in the assay on MCF7 is > 100 µM (inactive); in the assay on SN12C, > 100 µM (inactive); in the assay with PC-3, > 100 µM (inactive); in the assay with Hs-578T, > 100 µM (inactive); with HCT-15, 60 µM; with HOP-92, > 100 µM (inactive). Also, the GI50 in the assay on SK-MEL-5 is > 100 µM (inactive); with U-251, > 100 µM (inactive); in the assay on OVCAR-8 it was > 100 µM (inactive); with HCC 2998 it was > 100 µM (inactive); with SF-539 it was > 100 µM (inactive); with HCT-116, 61.1 µM (inactive). The GI50 with COLO 205 and in the assay on UO-31 was > 100 µM (inactive) each time.

For the compound `O=C1CC(C(O)C(O)C(O)CO)CC(=O)N1` (stereo not given), the GI50 with MDA-N, with MDA-MB-231, with 786-0, in the assay with NCI-H23, with K562 and in the assay on NCI-H522 was > 100 µM (inactive) in each case. The GI50 in the assay with MCF7 was > 100 µM (inactive); with SN12C, > 100 µM (inactive); in the assay on PC-3, > 100 µM (inactive); in the assay on Hs-578T it was > 100 µM (inactive); in the assay on HCT-15, above 100 µM; in the assay on HOP-92 it was > 100 µM (inactive). Moreover, the GI50 in the assay with SK-MEL-5, in the assay with U-251, in the assay with OVCAR-8, with HCC 2998, in the assay with SF-539 and in the assay on HCT-116 was > 100 µM (inactive) in each case. The GI50 in the assay on COLO 205 and in the assay on UO-31 was > 100 µM (inactive) each time.

In the case of `CC1=Nn2c(nc3sc4c(c3c2=O)CCCC4)SC1`, the GI50 in the assay with MDA-N was 28.4 µM (inactive); in the assay with MDA-MB-231 it was > 50.4 µM (inactive); in the assay on 786-0, > 81.3 µM (inactive); with NCI-H23, > 100 µM (inactive); in the assay on K562 it was 39.9 µM (inactive); in the assay on NCI-H522, 53.2 µM (inactive). Moreover, the GI50 was > 77.6 µM (inactive) in the assay with MCF7; > 78.5 µM (inactive) in the assay with SN12C; 63 µM (inactive) in the assay on PC-3; > 90.4 µM (inactive) in the assay with Hs-578T; 52.6 µM in the assay on HCT-15; 36.1 µM (inactive) with HOP-92. The GI50 in the assay with SK-MEL-5 is 62.4 µM (inactive); with U-251, 45.5 µM (inactive); in the assay with OVCAR-8, > 100 µM (inactive); in the assay with HCC 2998, 99.5 µM (inactive); in the assay on SF-539, > 48.6 µM (inactive); in the assay on HCT-116 it was 82 µM (inactive). In addition, the GI50 in the assay with COLO 205 was > 87.9 µM (inactive); in the assay on UO-31, 37.8 µM (inactive).

As for `CC/C(Cl)=N\OC(=O)Nc1ccc(F)c([N+](=O)[O-])c1`, the GI50 with MDA-N is 17.7 µM (inactive); with MDA-MB-231 it was 18.2 µM (inactive); in the assay on 786-0 it was 6.64 µM (inactive); in the assay with NCI-H23 it was 13.8 µM (inactive); with K562, 3.05 µM (inactive); in the assay on NCI-H522 it was 1.93 µM (inactive). In addition, the GI50 in the assay on MCF7 was 8.81 µM (inactive); with SN12C, 17.5 µM (inactive); in the assay on PC-3 it was 17.3 µM (inactive); in the assay on Hs-578T it was 17.4 µM (inactive); in the assay on HCT-15, 6.44 µM; in the assay with HOP-92, 5.14 µM (inactive). Besides, the GI50 was 12.4 µM (inactive) in the assay with SK-MEL-5; 21.5 µM (inactive) with U-251; 16.6 µM (inactive) in the assay on OVCAR-8; 29.4 µM (inactive) in the assay on HCC 2998; 5.32 µM (inactive) in the assay with SF-539; 7 µM (inactive) with HCT-116. Moreover, the GI50 in the assay on COLO 205 is 2.78 µM (inactive); with UO-31 it was 6.03 µM (inactive).

For the compound `CCC/C(Cl)=N\OC(=O)Nc1ccc(Br)cc1`, the GI50 in the assay with MDA-N was 13.2 µM (inactive); in the assay with MDA-MB-231 it was 16.9 µM (inactive); in the assay with 786-0, 7.24 µM (inactive); in the assay on NCI-H23, 17.4 µM (inactive); with K562, 1.94 µM (inactive); with NCI-H522, 1.75 µM (inactive). The GI50 in the assay on MCF7 is 6.47 µM (inactive); in the assay on SN12C, 14 µM (inactive); in the assay on PC-3, 14.7 µM (inactive); in the assay with Hs-578T it was 21.1 µM (inactive); in the assay on HCT-15 it was 2.56 µM; in the assay on HOP-92, 3.33 µM (inactive). For the same compound, the GI50 was 14.6 µM (inactive) in the assay on SK-MEL-5; 16.4 µM (inactive) with U-251; 14.6 µM (inactive) in the assay on OVCAR-8; 17.3 µM (inactive) in the assay on HCC 2998; 17.5 µM (inactive) in the assay with SF-539; 9.48 µM (inactive) in the assay with HCT-116. Besides, the GI50 in the assay with COLO 205 was 2.73 µM (inactive); with UO-31 it was 13 µM (inactive).

As to `CC(=O)/C=C/C=C(\C)CC/C=C(\C)CC(C)C`, the GI50 in the assay with MDA-N is 30.2 µM (inactive); in the assay with MDA-MB-231, 40.9 µM (inactive); in the assay on 786-0, 34 µM (inactive); in the assay with NCI-H23 it was 23.6 µM (inactive); in the assay on K562, 21.6 µM (inactive); in the assay with NCI-H522 it was 17.6 µM (inactive). For the same compound, the GI50 in the assay with MCF7 was 22.8 µM (inactive); in the assay with SN12C it was 31.4 µM (inactive); in the assay with PC-3 it was 38.2 µM (inactive); in the assay with Hs-578T it was 53.5 µM (inactive); in the assay with HCT-15, 16 µM; in the assay on HOP-92, 0.558 µM (active). Further, the GI50 was 18.5 µM (inactive) in the assay with SK-MEL-5; 25.4 µM (inactive) in the assay on U-251; 23.7 µM (inactive) in the assay on OVCAR-8; 18.4 µM (inactive) in the assay with HCC 2998; 21.7 µM (inactive) in the assay with SF-539; 21.8 µM (inactive) in the assay with HCT-116. For the same compound, the GI50 with COLO 205 is 20.2 µM (inactive); with UO-31, 76.6 µM (inactive).
